Test results as given in PubChem BioAssay AID1259407 (Chemical Carcinogenesis Research Information System (CCRIS), 2018).
Calls of active or inactive are those of the source. The rule behind the calls is not given here.

System: CCRIS mutagenicity, Ames/micronucleus/aberration tests
Assay: CCRIS mutagenicity studies
[1] = Test System: AMES SALMONELLA TYPHIMURIUM, Strain/Indicator: TA98, Metabolic Activation: NONE, Method: PREINCUBATION
[2] = Test System: AMES SALMONELLA TYPHIMURIUM, Strain/Indicator: TA100, Metabolic Activation: NONE, Method: PREINCUBATION
[3] = Test System: AMES SALMONELLA TYPHIMURIUM, Strain/Indicator: TA98, Metabolic Activation: RAT, LIVER, S-9, AROCLOR 1254, Method: STANDARD PLATE
[4] = Test System: MOUSE LYMPHOMA, Strain/Indicator: L5178Y (TK+/TK-), Metabolic Activation: NONE, Method: SUSPENSION/PLATE
[5] = Test System: MOUSE LYMPHOMA, Strain/Indicator: L5178Y (TK+/TK-), Metabolic Activation: RAT, LIVER, S-9, AROCLOR 1254, Method: SUSPENSION/PLATE
[6] = Test System: AMES SALMONELLA TYPHIMURIUM, Strain/Indicator: TA98, Metabolic Activation: NONE, Method: STANDARD PLATE
[7] = Test System: AMES SALMONELLA TYPHIMURIUM, Strain/Indicator: TA100, Metabolic Activation: NONE, Method: STANDARD PLATE

In the case of `[Cl][Ti]([Cl])[Cl]`, the mutagenic call [1] is reported as “inactive; negative”, the mutagenic call (Test System: AMES SALMONELLA TYPHIMURIUM, Strain/Indicator: TA98, Metabolic Activation: RAT LIVER S-9, PHENOBARBITAL AND BETA-NAPHTHOFLAVONE, Method: PREINCUBATION) is reported as “inactive; negative” and the mutagenic call [2] is reported as “inactive; negative”. The mutagenic call (Test System: AMES SALMONELLA TYPHIMURIUM, Strain/Indicator: TA100, Metabolic Activation: RAT LIVER S-9, PHENOBARBITAL AND BETA-NAPHTHOFLAVONE, Method: PREINCUBATION) was “active; positive”, the mutagenic call (Test System: AMES SALMONELLA TYPHIMURIUM, Strain/Indicator: TA1535, Metabolic Activation: NONE, Method: PREINCUBATION) was “inactive; negative” and the mutagenic call (Test System: AMES SALMONELLA TYPHIMURIUM, Strain/Indicator: TA1535, Metabolic Activation: RAT LIVER S-9, PHENOBARBITAL AND BETA-NAPHTHOFLAVONE, Method: PREINCUBATION) was “inactive; negative”. For the same molecule, the mutagenic call (Test System: AMES SALMONELLA TYPHIMURIUM, Strain/Indicator: TA1537, Metabolic Activation: NONE, Method: PREINCUBATION) was “inactive; negative”, the mutagenic call (Test System: AMES SALMONELLA TYPHIMURIUM, Strain/Indicator: TA1537, Metabolic Activation: RAT LIVER S-9, PHENOBARBITAL AND BETA-NAPHTHOFLAVONE, Method: PREINCUBATION) was “inactive; negative” and the mutagenic call (Test System: AMES SALMONELLA TYPHIMURIUM, Strain/Indicator: TA1538, Metabolic Activation: NONE, Method: PREINCUBATION) was “inactive; negative”. The mutagenic call (Test System: AMES SALMONELLA TYPHIMURIUM, Strain/Indicator: TA1538, Metabolic Activation: RAT LIVER S-9, PHENOBARBITAL AND BETA-NAPHTHOFLAVONE, Method: PREINCUBATION) was “inactive; negative”, the mutagenic call (Test System: E.COLI, Strain/Indicator: WP2UVRA, Metabolic Activation: NONE, Method: PREINCUBATION) was “inactive; negative” and the mutagenic call (Test System: E.COLI, Strain/Indicator: WP2UVRA, Metabolic Activation: RAT LIVER S-9, PHENOBARBITAL AND BETA-NAPHTHOFLAVONE, Method: PREINCUBATION) was “inactive; negative”.
In the case of `c1cscn1`, the mutagenic call (Test System: AMES SALMONELLA TYPHIMURIUM, Strain/Indicator: TA98, Metabolic Activation: HAMSTER, LIVER, S-9, AROCLOR 1254, Method: STANDARD PLATE) is reported as “inactive; negative”, the mutagenic call [3] is reported as “inactive; negative” and the mutagenic call (Test System: AMES SALMONELLA TYPHIMURIUM, Strain/Indicator: TA100, Metabolic Activation: HAMSTER, LIVER, S-9, AROCLOR 1254, Method: STANDARD PLATE) is reported as “inactive; negative”. For the same molecule, the mutagenic call (Test System: AMES SALMONELLA TYPHIMURIUM, Strain/Indicator: TA1535, Metabolic Activation: HAMSTER, LIVER, S-9, AROCLOR 1254, Method: STANDARD PLATE) was “inactive; negative”, the mutagenic call (Test System: AMES SALMONELLA TYPHIMURIUM, Strain/Indicator: TA1535, Metabolic Activation: NONE, Method: STANDARD PLATE) was “inactive; negative” and the mutagenic call (Test System: AMES SALMONELLA TYPHIMURIUM, Strain/Indicator: TA1535, Metabolic Activation: RAT, LIVER, S-9, AROCLOR 1254, Method: STANDARD PLATE) was “inactive; negative”. For the same molecule, the mutagenic call (Test System: AMES SALMONELLA TYPHIMURIUM, Strain/Indicator: TA1537, Metabolic Activation: HAMSTER, LIVER, S-9, AROCLOR 1254, Method: STANDARD PLATE) was “inactive; negative”, the mutagenic call (Test System: AMES SALMONELLA TYPHIMURIUM, Strain/Indicator: TA1537, Metabolic Activation: NONE, Method: STANDARD PLATE) was “inactive; negative” and the mutagenic call (Test System: AMES SALMONELLA TYPHIMURIUM, Strain/Indicator: TA1537, Metabolic Activation: RAT, LIVER, S-9, AROCLOR 1254, Method: STANDARD PLATE) was “inactive; negative”. The mutagenic call (Test System: AMES SALMONELLA TYPHIMURIUM, Strain/Indicator: TA1538, Metabolic Activation: HAMSTER, LIVER, S-9, AROCLOR 1254, Method: STANDARD PLATE) was “inactive; negative”, the mutagenic call (Test System: AMES SALMONELLA TYPHIMURIUM, Strain/Indicator: TA1538, Metabolic Activation: NONE, Method: STANDARD PLATE) was “inactive; negative” and the mutagenic call (Test System: AMES SALMONELLA TYPHIMURIUM, Strain/Indicator: TA1538, Metabolic Activation: RAT, LIVER, S-9, AROCLOR 1254, Method: STANDARD PLATE) was “inactive; negative”. For the same molecule, the mutagenic call [4] was “inactive; negative. reevaluation of results: negative” and the mutagenic call [5] was “inactive; negative. reevaluation of results: negative”.
For `C[C@@H]1C[C@@]2(C)[C@@H](CC[C@@H]3[C@@H]2CC[C@]2(C)[C@@H](O)CC[C@@H]32)CC1=O`, the mutagenic call [6] was “inactive; negative”, the mutagenic call (Test System: AMES SALMONELLA TYPHIMURIUM, Strain/Indicator: TA98, Metabolic Activation: S-9, Method: STANDARD PLATE) was “inactive; negative” and the mutagenic call [7] was “inactive; negative”. The mutagenic call (Test System: AMES SALMONELLA TYPHIMURIUM, Strain/Indicator: TA100, Metabolic Activation: S-9, Method: STANDARD PLATE) was “inactive; negative”, the mutagenic call (Test System: E. COLI, Strain/Indicator: WP2 (HCR), Metabolic Activation: NONE, Method: STANDARD PLATE) was “inactive; negative” and the mutagenic call (Test System: E. COLI, Strain/Indicator: WP2 (HCR), Metabolic Activation: S-9, Method: STANDARD PLATE) was “inactive; negative”.
In the case of `O=C(O[C@@H]1Cc2c(O)cc(O)cc2O[C@H]1c1ccc(O)c(O)c1)c1cc(O)c(O)c(O)c1`, the mutagenic call (Test System: Ames Salmonella typhimurium, Strain/Indicator: TA102, Metabolic Activation: None, Method: Preincubation) is reported as “inactive; negative” and the mutagenic call (Test System: Ames Salmonella typhimurium, Strain/Indicator: TA102, Metabolic Activation: Rat, Liver, S-9, Aroclor 1254 in 0.154 M KCl, Method: Preincubation) is reported as “inactive; negative”.
With `ClCc1cccnc1` the mutagenic call [6] was “inactive; negative”, the mutagenic call [3] was “inactive; negative” and the mutagenic call (Test System: AMES SALMONELLA TYPHIMURIUM, Strain/Indicator: TA100, Metabolic Activation: RAT, LIVER, S-9, AROCLOR 1254, Method: STANDARD PLATE) was “active; positive”. The mutagenic call (Test System: AMES SALMONELLA TYPHIMURIUM, Strain/Indicator: TA102, Metabolic Activation: NONE, Method: STANDARD PLATE) was “inactive; negative”, the mutagenic call (Test System: AMES SALMONELLA TYPHIMURIUM, Strain/Indicator: TA102, Metabolic Activation: RAT, LIVER, S-9, AROCLOR 1254, Method: STANDARD PLATE) was “inactive; negative” and the mutagenic call (Test System: E. COLI, Strain/Indicator: WP2 UVRA, Metabolic Activation: MOUSE, LIVER, S-9, AROCLOR 1254, Method: STANDARD PLATE) was “inactive; negative”. The mutagenic call (Test System: E. COLI, Strain/Indicator: WP2 UVRA, Metabolic Activation: NONE, Method: STANDARD PLATE) was “inactive; negative”, the mutagenic call (Test System: E. COLI, Strain/Indicator: WP2 UVRA, Metabolic Activation: RAT, LIVER, S-9, AROCLOR 1254, Method: STANDARD PLATE) was “inactive; negative” and the mutagenic call (Test System: E. COLI, Strain/Indicator: WP2 UVRA, Metabolic Activation: RAT, LIVER, S-9, Method: STANDARD PLATE) was “inactive; negative”. For the same molecule, the mutagenic call [4] was “active; positive” and the mutagenic call [5] was “active; positive”.
`C=C.CC(N)c1ccccc1.[Cl-].[Cl-].[Pt+2]` (centres undefined) was tested, and the mutagenic call (Test System: AMES SALMONELLA TYPHIMURIUM, Strain/Indicator: TA92, Metabolic Activation: NONE, Method: STANDARD PLATE) was “inactive; negative”, the mutagenic call [6] was “inactive; negative” and the mutagenic call [7] was “inactive; negative”. The mutagenic call (Test System: AMES SALMONELLA TYPHIMURIUM, Strain/Indicator: TA2410, Metabolic Activation: NONE, Method: STANDARD PLATE) was “inactive; negative”.
For `Cc1ccc2cc3c4c(ccc3c3c2c1C[C@H]3O)[C@H](O)[C@@H](O)C=C4`, the mutagenic call (Test System: CHINESE HAMSTER V-79, Strain/Indicator: V-79/8-AZAGUANINE, Metabolic Activation: RAT, LIVER, S-9, AROCLOR, Method: STANDARD PLATE) was “active; positive”.
For `CN1CCOCC1`, the mutagenic call [1] was “inactive; negative”, the mutagenic call (Test System: AMES SALMONELLA TYPHIMURIUM, Strain/Indicator: TA98, Metabolic Activation: RAT, LIVER, S-9, PCB, Method: PREINCUBATION) was “inactive; negative” and the mutagenic call [2] was “inactive; negative”. The mutagenic call (Test System: AMES SALMONELLA TYPHIMURIUM, Strain/Indicator: TA100, Metabolic Activation: RAT, LIVER, S-9, PCB, Method: PREINCUBATION) was “inactive; negative”.
